# Literature values as cited in patent publication US6947791B2, “Method and apparatus for electrically assisted topical delivery of agents for cosmetic applications” (Genetronics, Inc., priority 1998, dated 2005).
# Like-named read-outs stand apart in the source and are kept apart here.
# Tested on: human dermal fibroblasts
# Conditions: for MTT50 (amount required to kill 50% of the cells in cell culture): pH 7.5
structure (smiles),measurement,setting,value
O=C1O[C@H]([C@@H](O)CO)C([O-])=C1OP(=O)([O-])[O-].O=C1O[C@H]([C@@H](O)CO)C([O-])=C1OP(=O)([O-])[O-].[Mg+2].[Mg+2].[Mg+2] [MAP],MTT50 (amount required to kill 50% of the cells in cell culture),fibroblasts from person one,"75,000 ppm"
same,MTT50 (amount required to kill 50% of the cells in cell culture),fibroblasts from person two,"higher than 100,000 ppm"
same,cytotoxicity compared to L-ascorbic acid,fibroblasts of all ages,significantly lower cytotoxicity
